The source of these data is patent publication US7067549B2, “Pyrrolidone carboxamides” (Actelion Pharmaceuticals AG, priority 2001, dated 2006).

The experiment concerns the target T1, mouse NPY-Y5 receptors (mNPY-Y5) (Mus musculus, UniProt O70342).
T1 construct: The full-length cDNA which contains the mouse NPY-Y5 (mNPY-Y5) receptor coding was amplified from mouse brain cDNA; expressed in transfected cells
T1 sequence (O70342 1-466): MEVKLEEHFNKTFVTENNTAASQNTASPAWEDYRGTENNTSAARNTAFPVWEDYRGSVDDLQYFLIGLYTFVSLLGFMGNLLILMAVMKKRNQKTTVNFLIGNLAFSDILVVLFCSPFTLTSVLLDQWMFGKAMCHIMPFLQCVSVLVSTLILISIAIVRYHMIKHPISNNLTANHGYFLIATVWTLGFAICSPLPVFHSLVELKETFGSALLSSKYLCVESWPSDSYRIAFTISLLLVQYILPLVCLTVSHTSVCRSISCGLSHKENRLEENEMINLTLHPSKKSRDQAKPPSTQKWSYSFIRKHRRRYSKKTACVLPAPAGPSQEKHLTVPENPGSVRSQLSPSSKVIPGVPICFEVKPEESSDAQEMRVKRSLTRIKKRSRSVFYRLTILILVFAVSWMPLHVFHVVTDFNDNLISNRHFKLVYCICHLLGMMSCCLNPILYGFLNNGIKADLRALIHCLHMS
Briefly: Radioligand competition binding (125I-PYY) on membranes of HEK293 cells expressing recombinant mouse NPY-Y5 receptor. As to conditions: displacement of 100 pM 125I-labeled PYY, 1 h at 22° C., read-out: NPY5 IC50. The text has this:
The full-length cDNA which contains the mouse NPY-Y5 (mNPY-Y5) receptor coding was amplified from mouse brain cDNA using specific primers, which were custom-made on the basis of published sequences, and employing Pfu DNA polymerase (Stratagene). The amplification product was subcloned into a mammalian expression vector pcDNA3 using EcoRI and XhoI restriction sites. Positive clones were sequenced; one clone, which contained the published sequence, was selected for preparing stable cell clones.
Human embryonic kidney 293 (HEK293) cells were transfected with 10 μg of mNPY5 DNA using Lipofectamine reagent (Gibco BRL) in accordance with the manufacturer's instructions. Two days after the transfection, the geneticin selection (1 mg/ml) was initiated and several stable clones were isolated. One of the clones was used for further pharmacological characterization.
Human embryonic kidney cells (HEK293) which express recombinant mouse NPY-Y5 receptors (mNPY-Y5) were disrupted by being frozen/thawed three times in hypotonic Tris buffer (5 mM, pH 7.4, 1 mM MgCl2), after which they were homogenized and centrifuged at 72 000 G for 15 minutes. The precipitate was washed twice with Tris buffer (pH 7.4) containing 25 mM MgCl2, 250 mM sucrose, 0.1 mM phenylmethylsulfonyl fluoride and 0.1 mM 1,10-phenanthroline, then resuspended in the same buffer and stored in aliquots at −80° C. The protein was determined by the Lowry method using bovine serum albumin (BSA) as the standard.
The competition binding analysis was carried out in 250 μl of 25 mM Hepes buffer (pH 7.4, 2.5 mM CaCl2, 1 mM MgCl2, 1% bovine serum albumin and 0.01% sodium azide) which 5 μg of protein, 100 pM ^125I-labeled peptide YY (PYY) and 10 μl of a DMSO solution containing increasing quantities of DMSO solution containing unlabeled test compound. After a one-hour incubation at 22° C., the bound ligand was separated from the unbound ligand by means of filtration through a glass fiber filter. Nonspecific binding was determined in the presence of 1 μM unlabeled PYY. Specific binding is defined as the difference between total binding and nonspecific binding. An IC50 value is defined as the concentration of the antagonist which displaces 50% of the ^125I-labeled […]. This concentration is determined by linear regression analysis following logit/log transformation of the binding values.
A general note: Loss of bound radioactivity is the signal in a displacement assay; it reports binding, not function.

One may read the IC50 as the concentration needed to halve the response being measured.

Consider `CCOC(=O)CN(c1ccccc1)c1ccc(NC(=O)C2CC(=O)N(c3cc(C)ccc3C)C2)cc1` (racemic) [rac. Ethyl [(4-{[1-(2,5-dimethylphenyl)-5-oxopyrrolidine-3-carbonyl]amino}phenyl)phenylamino]acetate], for which the IC50 was 0.013 µM.

`CC(C)c1ccccc1N1CC(C(=O)Nc2ccc(N(CC3CC3)c3ccccc3)cc2)CC1=O` (racemic) [rac. N-[4-(Cyclopropylmethylphenylamino)phenyl]-1-(2-isopropylphenyl)-5-oxopyrrolidine-3-carboxamide]: the IC50 was 0.047 µM.

For the compound `Cc1ccc(N2CC(C(=O)Nc3ccc(Nc4nc(C)cc(C)n4)cc3)CC2=O)cc1` (racemic) [rac. N-[4-(4,6-Dimethylpyrimidin-2-ylamino)phenyl]-5-oxo-1-p-tolylpyrrolidine-3-carboxamide], the IC50 was 0.032 µM.

Take `CCN(c1ccc(NC(=O)C2CC(=O)N(c3cc(C)ccc3C)C2)cc1)C(C)C` (racemic) [rac. N-[4-(Ethylisopropylamino)phenyl]-1-(2,5-dimethylphenyl)-5-oxopyrrolidine-3-carboxamide]: the IC50 was 0.01 µM.

Consider `CCN(c1ccc(NC(=O)C2CC(=O)N(CC(O)c3ccccc3)C2)cc1)c1nc(C)cc(C)n1` (racemic) [rac. N-{4-[(4,6-Dimethylpyrimidin-2-yl)ethylamino]phenyl}-1-(2-hydroxy-2-phenylethyl)-5-oxo-pyrrolidine-3-carboxamide], for which the IC50 was 0.033 µM.

Turning to `Cc1ccc(C)c(N2CC(C(=O)Nc3ccc(N(c4ccccc4)C(C)C)cc3)CC2=O)c1` (racemic) [rac. N-[4-(Isopropylphenylamino)phenyl]-1-(2,5-dimethylphenyl)-5-oxopyrrolidine-3-carboxamide], the IC50 worked out at 0.022 µM.

For the compound `CCn1c2ccccc2c2cc(NC(=O)C3CC(=O)N(CC(O)c4ccccc4)C3)ccc21` (racemic) [rac. N-(9-Ethyl-9H-carbazol-3-yl)-1-(2-hydroxy-2-phenylethyl)-5-oxopyrrolidine-3-carboxamide], the IC50 amounted to 0.008 µM.

Regarding `COc1ccc(C)c(N2CC(C(=O)Nc3ccc(N(CC4CC4)c4ccccc4)cc3)CC2=O)c1` (racemic) [rac. N-[4-(Cyclopropylmethylphenylamino)phenyl]-1-(5-methoxy-2-methylphenyl)-5-oxopyrrolidine-3-carboxamide], the IC50 is 0.034 µM.

`CCn1c2ccccc2c2cc(NC(=O)C3CC(=O)N(Cc4ccc(Cl)cc4)C3)ccc21` (racemic) [rac. N-(9-Ethyl-9H-carbazol-3-yl)-1-(4-chlorobenzyl)-5-oxopyrrolidine-3-carboxamide]: the IC50 was found to be 0.01 µM.

For `CCN(CC)c1ccc(NC(=O)C2CC(=O)N(c3cc(C)ccc3C)C2)cc1` (racemic) [rac. N-(4-Diethylaminophenyl)-1-(2,5-dimethylphenyl)-5-oxopyrrolidine-3-carboxamide], the IC50 was 0.009 µM.

With `Cc1cc(C)nc(N(C)c2ccc(NC(=O)C3CC(=O)N(c4ccccc4C(C)C)C3)cc2)n1` (racemic) [rac. N-{4-[(4,6-Dimethylpyrimidin-2-yl)methylamino]phenyl}-1-(2-isopropylphenyl)-5-oxopyrrolidine-3-carboxamide], the IC50 is 0.031 µM.

Consider `Cc1ccc(C)c(N2CC(C(=O)Nc3ccc(Nc4nc(C)cc(C)n4)cc3)CC2=O)c1` (racemic) [rac. N-[4-(4,6-Dimethylpyrimidin-2-ylamino)phenyl]-1-(2,5-dimethylphenyl)-5-oxopyrrolidine-3-carboxamide], for which the IC50 worked out at 0.02 µM.

For `CCn1c2ccccc2c2cc(NC(=O)C3CC(=O)N(c4cccc(F)c4)C3)ccc21` (racemic) [rac. N-(9-Ethyl-9H-carbazol-3-yl)-1-(3-fluorophenyl)-5-oxopyrrolidine-3-carboxamide], the IC50 worked out at 0.03 µM.

For `CCOC(=O)CN(c1ccccc1)c1ccc(NC(=O)C2CC(=O)N(c3cc(OC)ccc3C)C2)cc1` (racemic) [rac. Ethyl [(4-{[1-(5-methoxy-2-methylphenyl)-5-oxopyrrolidine-3-carbonyl]amino}phenyl)phenylamino]acetate], the IC50 was determined as 0.046 µM.

With `Cc1ccc(C)c(N2CC(C(=O)Nc3ccc(-c4ccccc4)cc3)CC2=O)c1` (racemic) [rac. N-(Biphenyl-4-yl)-1-(2,5-dimethylphenyl)-5-oxopyrrolidine-3-carboxamide], the IC50 is 0.034 µM.

Take `CCn1c2ccccc2c2cc(NC(=O)C3CC(=O)N(Cc4ccco4)C3)ccc21` (racemic) [rac. N-(9-Ethyl-9H-carbazol-3-yl)-1-furan-2-ylmethyl-5-oxopyrrolidine-3-carboxamide]: the half-maximal inhibitory concentration (IC50) amounted to 0.01 µM.

Turning to `CCN(c1ccc(NC(=O)C2CC(=O)N(c3cc(OC)ccc3C)C2)cc1)c1nc(C)cc(C)n1` (racemic) [rac. N-{4-[(4,6-Dimethylpyrimidin-2-yl)ethylamino]phenyl}-1-(5-methoxy-2-methylphenyl)-5-oxopyrrolidine-3-carboxamide], the IC50 came to 0.015 µM.

On to `CC(C)c1ccccc1N1CC(C(=O)Nc2ccc(N(c3ccccc3)C(C)C)cc2)CC1=O` (racemic) [rac. N-[4-(Isopropylphenylamino)phenyl]-1-(2-isopropylphenyl)-5-oxopyrrolidine-3-carboxamide], for which the IC50 came out at 0.034 µM.

In the case of `CCN(c1ccccc1)c1ccc(NC(=O)C2CC(=O)N(C3Cc4ccccc4C3)C2)cc1` (racemic) [rac. N-[4-(Ethylphenylamino)phenyl]-1-indan-2-yl-5-oxopyrrolidine-3-carboxamide], the IC50 was determined as 0.049 µM.

With `CCn1c2ccccc2c2cc(NC(=O)C3CC(=O)N(C4CCCCCC4)C3)ccc21` (racemic) [rac. N-(9-Ethyl-9H-carbazol-3-yl)-1-cycloheptyl-5-oxopyrrolidine-3-carboxamide], the IC50 was 0.015 µM.

As for `CCn1c2ccccc2c2cc(NC(=O)C3CC(=O)N(Cc4ccccc4)C3)ccc21` (racemic) [rac. N-(9-Ethyl-9H-carbazol-3-yl)-1-benzyl-5-oxopyrrolidine-3-carboxamide], the IC50 came out at 0.032 µM.

Turning to `CCn1c2ccccc2c2cc(NC(=O)C3CC(=O)N(CCc4cccs4)C3)ccc21` (racemic) [rac. N-(9-Ethyl-9H-carbazol-3-yl)-5-oxo-1-(2-thiophen-2-ylethyl)pyrrolidine-3-carboxamide], the IC50 is 0.01 µM.

Consider `CCN(c1ccc(NC(=O)C2CC(=O)N(c3ccccc3C(C)C)C2)cc1)c1nc(C)cc(C)n1` (racemic) [rac. N-{4-[(4,6-Dimethylpyrimidin-2-yl)ethylamino]phenyl}-1-(2-isopropylphenyl)-5-oxopyrrolidine-3-carboxamide], for which the IC50 turned out to be 0.046 µM.

For the compound `CCn1c2ccccc2c2cc(NC(=O)C3CC(=O)N(c4ccc(C)cc4)C3)ccc21` (racemic) [rac. N-(9-Ethyl-9H-carbazol-3-yl)-5-oxo-1-p-tolylpyrrolidine-3-carboxamide], the IC50 was 0.03 µM.

With `CCN(c1ccccc1)c1ccc(NC(=O)C2CC(=O)N(c3cc(OC)ccc3C)C2)cc1` (racemic) [rac. N-[4-(Ethylphenylamino)phenyl]-1-(5-methoxy-2-methylphenyl)-5-oxopyrrolidine-3-carboxamide], the IC50 came out at 0.03 µM.

Turning to `Cc1cc(C)nc(Nc2ccc(NC(=O)C3CC(=O)N(c4ccccc4C(C)C)C3)cc2)n1` (racemic) [rac. N-[4-(4,6-Dimethylpyrimidin-2-ylamino)phenyl]-1-(2-isopropylphenyl)-5-oxopyrrolidine-3-carboxamide], the half-maximal inhibitory concentration (IC50) is 0.025 µM.

Take `Cc1ccc(C)c(N2CC(C(=O)Nc3ccc(N(C)c4ccccc4)cc3)CC2=O)c1` (racemic) [rac. N-[4-(Methylphenylamino)phenyl]-1-(2,5-dimethylphenyl)-5-oxopyrrolidine-3-carboxamide]: the 50% inhibitory concentration (IC50) was 0.026 µM.

Consider `COc1ccc(C)c(N2CC(C(=O)Nc3ccc(N(C)c4nc(C)cc(C)n4)cc3)CC2=O)c1` (racemic) [rac. N-{4-[(4,6-Dimethylpyrimidin-2-yl)methylamino]phenyl}-1-(5-methoxy-2-methylphenyl)-5-oxopyrrolidine-3-carboxamide], for which the IC50 was 0.041 µM.
